Laboratory results published in patent US4325951A, “1-Oxadethiacephalosporin derivatives and antibacterial use thereof” (Meiji Seika Kaisha, Ltd., priority 1979, dated 1982).
Values after ≈ are worked out from the molar mass of the structure shown. Where a name gives a salt, the structure may show the parent alone. Read-outs that look alike come from different tables or passages of the source.

Key:
[1] = test system: Sta. aureus 209P JC-1; assay: antibacterial spectrum, MIC (Table 2); format: cell-based; settings: Staphylococcus aureus, nutrient agar, 37° C., 20 hours
[2] = test system: Sta. aureus Smith (I); assay: antibacterial spectrum, MIC (Table 2); format: cell-based; settings: Staphylococcus aureus, nutrient agar, 37° C., 20 hours
[3] = test system: B. subtilis ATCC 6633; assay: antibacterial spectrum, MIC (Table 2); format: cell-based; settings: Bacillus subtilis, ATCC6633, nutrient agar, 37° C., 20 hours
[4] = test system: E. coli W 3630 RGN 823; assay: microbe, parasite or virus in culture; format: cell-based; settings: Escherichia coli, W3630RGN823, 20 h
[5] = test system: E. coli W 3630 RGN 238; assay: microbe, parasite or virus in culture; format: cell-based; settings: Escherichia coli, W3630RGN238, 20 h
[6] = test system: E. coli ML 1410; assay: antibacterial spectrum, MIC (Table 2); format: cell-based; settings: Escherichia coli, ML1410, nutrient agar, 37° C., 20 hours
[7] = test system: Kleb. pneumoniae GN 69; assay: antibacterial spectrum, MIC (Table 2); format: cell-based; settings: Klebsiella pneumoniae, GN69, nutrient agar, 37° C., 20 hours
[8] = test system: Pro. mirabilis GN 79; assay: antibacterial spectrum, MIC (Table 2); format: cell-based; settings: Proteus mirabilis, GN79, nutrient agar, 37° C., 20 hours
[9] = test system: Sal. typhimurium LT-2; assay: antibacterial spectrum, MIC (Table 2); format: cell-based; settings: Salmonella enterica, nutrient agar, 37° C., 20 hours
[10] = test system: Shigella dysenteriae Shigae; assay: microbe, parasite or virus in culture; format: cell-based; settings: 20 h
[11] = test system: Pro. vulgaris GN 76; assay: antibacterial spectrum, MIC (Table 2); format: cell-based; settings: Proteus vulgaris, GN76, nutrient agar, 37° C., 20 hours
[12] = test system: Pro. morganii 1510; assay: antibacterial spectrum, MIC (Table 2); format: cell-based; settings: Morganella morganii, nutrient agar, 37° C., 20 hours
[13] = test system: Citro freundii GN 346/16; assay: antibacterial spectrum, MIC (Table 2); format: cell-based; settings: nutrient agar, 37° C., 20 hours
[14] = test system: Ps. aeruginosa MB-3829; assay: antibacterial spectrum, MIC (Table 2); format: cell-based; settings: Pseudomonas aeruginosa
[15] = test system: Ps. cepacia M-0527; assay: antibacterial spectrum, MIC (Table 2); format: cell-based; settings: Burkholderia cepacia, M0527, nutrient agar, 37° C., 20 hours
[16] = test system: Escherichia coli No. 29; assay: therapeutic treatment of bacterial infection in mice, ED50; format: in vivo; settings: male ICR mice; E. coli No. 29 intraperitoneally, 2.0×10^7 cells per mouse; subcutaneous injection 30 minutes after inoculation
Protocol: Thirty minutes after the inoculation, the mice were each treated by subcutaneous injection of 0.2 ml of a solution of the test compound in physiological saline. In this way, the ED50 value of the test compounds was determined. Cefoxitin and the 6059-S Compound (di-Na salt) were also tested in the same manner as above, for the comparison purpose.

[17] = test system: Escherichia coli No. 29; assay: Minimum Inhibitory Concentration "in vitro" (Table 1); format: cell-based
[18] = test system: Escherichia coli GN; assay: as above; format: cell-based

SMILES | MIC [1] [µg/mL] | MIC [2] [µg/mL] | MIC [3] [µg/mL] | MIC [4] [µg/mL] | MIC [5] [µg/mL] | MIC [6] [µg/mL] | MIC [7] [µg/mL] | MIC [8] [µg/mL] | MIC [9] [µg/mL] | MIC [10] [µg/mL] | MIC [11] [µg/mL] | MIC [12] [µg/mL] | MIC [13] [µg/mL] | MIC ([14]; MB3829, 20 h) [µg/mL] | MIC [15] [µg/mL] | ED50 value [16] [mg/mouse] | MIC [17] [µg/mL] | MIC [18] [µg/mL] | MIC ([14]; MB3829, Ps. aeruginosa MB-3829, nutrient agar, 37° C., 20 hours, read-out: MIC) [µg/mL]
CO[C@@]1(NC(=O)C(C(=O)O)c2ccc(O)cc2)C(=O)N2C(C(=O)O)=C(CSc3nnnn3C)CO[C@@H]21 (stereo partly drawn) [6059-S Compound, 7β-(α-p-hydroxyphenyl-α-carboxyacetoamido)-7α-methoxy-3-[(1-methyl-1H-tetrazole-5-yl)thiomethyl]-1-oxadethia-3-cephem-4-carboxylic acid, reference compound] | 6.25 (≈ 12 µM) | 6.25 (≈ 12 µM) | 25 (≈ 48 µM) | 0.05 (≈ 0.0961 µM) | 0.2 (≈ 0.384 µM) | 0.1 (≈ 0.192 µM) | 0.39 (≈ 0.749 µM) | 0.39 (≈ 0.749 µM) | 0.2 (≈ 0.384 µM) | 0.1 (≈ 0.192 µM) | 0.39 (≈ 0.749 µM) | 0.39 (≈ 0.749 µM) | 0.1 (≈ 0.192 µM) | 3.13 (≈ 6.01 µM) | 6.25 (≈ 12 µM) | 0.16 | – | – | –
CO[C@@]1(NC(=O)Cc2cccs2)C(=O)N2C(C(=O)O)=C(COC(N)=O)CS[C@@H]21 [Cefoxitin, reference compound] | – | – | – | – | – | – | – | – | – | – | – | – | – | – | – | 0.50 | – | – | –
CO[C@@]1(NC(=O)CSC[C@@H](N)C(=O)O)C(=O)N2C(C(=O)O)=C(CSc3nnnn3C)CO[C@@H]21 [Example 1, 7β-[(2D-2-amino-2-carboxy)ethylthioacetoamido]-7α-methoxy-3-[(1-methyl-1H-tetrazol-5-yl)thiomethyl]-1-oxadethia-3-cephem-4-carboxylic acid sodium salt] | 3.13 | 1.56 | 1.56 | ≤ 0.025 | 0.39 | 0.39 | 0.78 | 0.2 | 0.39 | 0.2 | 0.39 | 0.78 | 0.78 | – | 3.13 | 0.03 | 0.39 | 0.39 | 12.5
Cn1nnnc1SCC1=C(C(=O)O)N2C(=O)[C@@H](NC(=O)CSC[C@@H](N)C(=O)O)[C@H]2OC1 [Example 2, 7β-[(2D-2-Amino-2-carboxy)ethylthioacetoamido]-3-[(1-methyl-1H-tetrazol-5-yl)thiomethyl]-1-oxadethia-3-cephem-4-carboxylic acid sodium salt] | – | – | – | – | – | – | – | – | – | – | – | – | – | – | – | 0.05 | 0.39 | 3.13 | –
CO[C@@]1(NC(=O)CSC[C@@H](N)C(=O)O)C(=O)N2C(C(=O)[O-])=C(C[n+]3ccc(C(N)=O)cc3)CO[C@@H]21 [Example 3, 7β-[(2D-2-Amino-2-carboxy)ethylthioacetoamido]-7α-methoxy-3-[(4-carbamoylpyridinium)methyl]-1-oxadethia-3-cephem-4-carboxylic acid] | – | – | – | – | – | – | – | – | – | – | – | – | – | – | – | – | 0.78 (≈ 1.53 µM) | 0.78 (≈ 1.53 µM) | –
